Experimental findings from US20190111040A1, “IN VIVO AMELIORATION OF ENDOGENOUS ANTI-TUMOR AUTOANTIBODIES TARGETING SURFACE TUMOR ANTIGENS VIA LOW-DOSE P4N” (THE JOHNS HOPKINS UNIVERSITY, priority 2016, published 2019) are described below.

Counter-ions that a name gives are not always drawn.

Test [1] has as its system human PBMCs. The test is described as follows: Activin A and BAFF expression in human PBMCs. The class given is cell-based. The note with it: low dose P4N (3 μM). The procedure:
FIGS. 5A-5F depict the expression of Activin A/BAFF induced by P4N treatments. (A) P4N induced Activin A or BAFF expression in human PBMCs as determined by RT-PCR. S1-S5 display different individual blood samples collected from 5 different human donors; N, no treatment; P, P4N-treatment (3 μM). The change in Activin A and BAFF expression (mean of 5 patients) relative to the control (NC) is plotted as a histogram (B) The effect of increasing dosages of P4N for 12 h on mRNA and protein levels of Activin A or BAFF in THP-1 cells was analyzed by RT-PCR and ELISA. (C) The effect of 6 μM P4N on mRNA and protein levels of Activin A or BAFF in THP-1 cells was determined at a different time period. (D) The effect of different inhibitors on Activin A-induced BAFF expression was examined. The expression of BAFF mRNA in inhibitor-treated THP-1 cells was determined by RT-PCR, and (E) BAFF protein secretion was measured by ELISA. (F) The effect of THP-1 conditioned media on the proliferation of Raji cells and OKT3 hybridoma cells were determined. […] The results are expressed as % viable cells relative to the control (NC, media from untreated THP-1 cells). […]
Reverse transcription PCR. Human PBMCs or THP-1 cells were treated with P4N, and then the mRNA expression of INHBA and BAFF in these cells was measured by reverse transcription PCR. […]

Test [2] has as its system CT26 tumors. The test is described as follows: P4N in B cell or CD8+ T cell depleted mice bearing CT26 tumors. The class given is in vivo, BALB/c mice. The note with it: 5 mg/kg intratumoral every week. The procedure:
FIGS. 1A-1C illustrate the antitumor effects of low dose P4N in immune competent and deficient mice. (A) BALB/c (n=10/group) and nude mice (n=10/group) bearing CT26 tumors were treated with a single intratumoral injection of 2.5 or 5 mg/kg of P4N N. (B) B cell or CD8+ T cell depleted BALB/c mice (n=9/group) bearing CT26 tumors were treated with 5 mg/kg of P4N by intratumoral injection every week. Tumor volumes were measured every 2 days after treatments. Significant differences between the P4N groups and the PBS group were identified and labeled with *:p<0.05 and **:p<0.01. (C) Immunohistochemistry staining was used to monitor the infiltrations of macrophage (F4/80), DC (CD11c), T (CD3) and B cells (CD20) in the tumor area after a single intratumoral injection of PBS or 5 mg/kg of P4N. The photos are representative of the mice sacrificed on day 7 after the treatments.
P4N treatments in vivo. BALB/c or BALB/c/nu mice (6 week old) were inoculated subcutaneously with 1×10^6 CT-26 cells in 100 μl PBS. When the average tumor mass reached 50 mm^3, the animals were treated with 2.5 mg/kg or 5 mg/kg of P4N in one intratumoral injection. Subsequently, the tumor volumes were measured using a caliper every 2 days, and the volumes were calculated using the following formula: volume (mm^3)=length×width×height. Before sacrifice, the sera of the mice were collected for experimental use. […]

For test [3], the system named is CT26 tumors. Nature of the test: P4N treatments in vivo, CT-26 tumors in BALB/c mice. The note with it: one intratumoral injection of 2.5 mg/kg or 5 mg/kg. The procedure: P4N treatments in vivo. BALB/c or BALB/c/nu mice (6 week old) were inoculated subcutaneously with 1×10^6 CT-26 cells in 100 μl PBS. When the average tumor mass reached 50 mm^3, the animals were treated with 2.5 mg/kg or 5 mg/kg of P4N in one intratumoral injection. Subsequently, the tumor volumes were measured using a caliper every 2 days, and the volumes were calculated using the following formula: volume (mm^3)=length×width×height. Before sacrifice, the sera of the mice were collected for experimental use.

Test [4] has as its target T1, LTA4H (Homo sapiens, UniProt P09960).
T1 construct: THP-1 cells (1×10^6 cells/ml/well) in a 24-well culture plate; endogenous in cells; host or cells: THP-1 cells (BCRC, Hsinchu, Taiwan)
T1 sequence (P09960 1-611): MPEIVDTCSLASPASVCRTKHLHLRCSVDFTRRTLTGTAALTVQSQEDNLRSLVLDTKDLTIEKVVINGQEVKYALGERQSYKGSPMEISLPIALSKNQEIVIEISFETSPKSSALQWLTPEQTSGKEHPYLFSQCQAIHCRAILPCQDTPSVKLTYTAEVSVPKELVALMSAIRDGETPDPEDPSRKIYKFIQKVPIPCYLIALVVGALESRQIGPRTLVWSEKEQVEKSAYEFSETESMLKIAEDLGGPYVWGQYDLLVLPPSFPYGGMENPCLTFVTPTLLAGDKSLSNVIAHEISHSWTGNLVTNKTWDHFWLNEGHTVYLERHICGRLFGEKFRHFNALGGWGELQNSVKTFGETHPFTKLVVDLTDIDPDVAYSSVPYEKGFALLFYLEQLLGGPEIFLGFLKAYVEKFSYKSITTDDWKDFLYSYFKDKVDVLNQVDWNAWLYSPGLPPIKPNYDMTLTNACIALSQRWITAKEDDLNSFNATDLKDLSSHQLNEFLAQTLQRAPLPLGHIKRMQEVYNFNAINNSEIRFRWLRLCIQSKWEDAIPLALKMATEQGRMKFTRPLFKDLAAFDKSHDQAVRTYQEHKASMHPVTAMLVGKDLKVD
Nature of the test: LTB4 ELISA in THP-1 culture media. To be noted: THP-1, 3 μM P4N. The class given is cell-based. The procedure:
ELISA assays. THP-1 cells (1×10^6 cells/ml/well) in a 24-well culture plate were pretreated with 10 μM bestatin (a LTA4H inhibitor, Sigma-Aldrich) for 2 h and then treated with 3 μM P4N for various time intervals. The levels of LTB4 in the culture media were determined by the LTB4 (Enzo Life Sciences, Farmingdale, N.Y.) (R&D) ELISA Kits. The amount of TNF-α, IL-8 and Activin A in cultured media were measured in a similar manner.
A general note: An ELISA detects its analyte on a solid surface through an enzyme-linked reagent.

As to `C[C@H](Cc1ccc(OCCN2CCCCC2)c(OCCN2CCCCC2)c1)[C@@H](C)Cc1ccc(OCCN2CCCCC2)c(OCCN2CCCCC2)c1` [P4N, meso-2,3-dimethyl-1,4-bis(3,4-[2-(piperidino)ethoxyphenyl])butane tetrakishydrochloride salt], the “gene expression and protein production of Activin A and BAFF” value in test [1] is “increase their gene expression and protein production”. Moreover, the “P4N-induced tumor inhibition under B cell-depletion” value in test [2] (B cell depleted) is reported as “abolished the effect of P4N-induced tumor inhibition”. In test [2] (CD8+ T cell depleted), the “P4N-induced tumor inhibition under CD8+ T cell-depletion” value is “only attenuated the effect of P4N-induced tumor inhibition”. For the same molecule, the “growth of CT26 tumors” value in test [3] is listed as “significantly inhibited”. The “production of LTA4H reaction product LTB4” value in test [4] is “increased the production”.
